US20050170391A1, “TAUT1 transporters expressed in blood brain barrier cells” (Xenoport, Inc., priority 2004, published 2005)
“And” between values parts separate entries of the source, which are not always exact repeats. Equal values may be shown once.

Columns and labels:
TAUT1 [1] = biological target: T1, TAUT1 (Homo sapiens, UniProt P31641); test: hTAUT1 competition uptake assay in HEK-TREx-TAUT1 cells; assay type: cell-based; design: expressed in transfected cells; host or cells: HEK-TREx cells (HEK-TREx-TAUT1 inducible line)
T1 sequence (P31641 1-620): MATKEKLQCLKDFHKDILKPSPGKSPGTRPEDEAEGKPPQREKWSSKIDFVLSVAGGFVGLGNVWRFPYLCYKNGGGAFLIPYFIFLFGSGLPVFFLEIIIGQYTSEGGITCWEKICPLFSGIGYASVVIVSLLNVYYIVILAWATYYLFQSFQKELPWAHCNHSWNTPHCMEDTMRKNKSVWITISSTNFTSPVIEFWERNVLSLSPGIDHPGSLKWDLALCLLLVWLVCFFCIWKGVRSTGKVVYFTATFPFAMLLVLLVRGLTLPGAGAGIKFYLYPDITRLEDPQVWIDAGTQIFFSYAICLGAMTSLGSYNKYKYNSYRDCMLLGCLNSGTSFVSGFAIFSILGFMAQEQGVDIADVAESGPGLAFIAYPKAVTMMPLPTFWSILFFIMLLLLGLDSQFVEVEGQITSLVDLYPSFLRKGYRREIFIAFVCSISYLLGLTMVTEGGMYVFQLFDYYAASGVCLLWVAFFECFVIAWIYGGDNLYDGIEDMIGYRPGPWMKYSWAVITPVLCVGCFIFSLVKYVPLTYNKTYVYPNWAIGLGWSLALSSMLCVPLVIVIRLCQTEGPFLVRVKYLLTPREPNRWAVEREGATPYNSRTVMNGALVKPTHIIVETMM
Method: A modified competition uptake assay was developed to determine the ability of a test compound(s) to inhibit the uptake of radiolabeled substrates into HEK-TREx-TAUT1 cells induced to over-express hTAUT. The results are stated as affinities (IC50).
The competition uptake assay were prepared as follows: Compounds were prepared for assay by diluting a 100 mM stock concentration (in DMSO) to the appropriate working concentration. Typically, seven-point dose response curves were prepared starting at a final assay concentration of 1 mM and carrying out three-fold dilutions. These dilutions were prepared by making a working “compound” plate that contained a 2× solution of the desired starting concentration of each test compound in duplicate in row A of a v-bottom microtiter plate. Six 3-fold serial dilutions (from row B to G) were made into the HBSS assay buffer (9.8 g/L Hank's Balance Salts (Sigma; H-1387), 2.6 g/L HEPES (10 mM) (Sigma; H-3375), 0.35 g/L NaHCO3 (4.2 mM) (Sigma; S-6297), pH to 7.4 with 5N NaOH) (with the appropriate amount of DMSO so that the DMSO concentration remains constant at all dilutions). The resulting “compound” plate contained serial dilutions of six compounds in duplicate.
^3H-GABA was diluted into HBSS buffer to a final concentration of 4,000 cpm/μl. Enough solution was prepared to allow addition of 25 μl/well (the final concentration was 100,000 cpm/well).
HEK-TREx-hTAUT cells, plated in 96-well plates and treated with tetracycline (or tet analog (e.g., doxycycline), were removed from the incubator. Growth media was removed from the cells, and the cells were washed twice in room temperature HBSS (100 μl/well/wash) using a 96-well plate washer (Bio Tek ELX405). Alternatively, cells were washed manually with equivalent volumes using a multichannel pipettor. Immediately before beginning the assay, the final 100 μl wash solution was removed from the cells by aspiration.
Using a 96-well pipettor, 25 μl from the “compound” plate was added to each well of the cell plate. The assay was started by adding 25 μl of the ^3H-GABA working solution. The plate was incubated at room temperature for 15 minutes. The assay was stopped by washing the cells four times with ice-cold HBSS buffer using a ELX 405 plate washer (100 μl buffer/well/wash) having an angled buffer dispenser.
Scintillation fluid (200 μl) (Optiphase Supermix (Perkin Elmer) was added to each well, and the plate was covered with a 96-well adhesive plate cover and placed on a shaker for 10 minutes. The plates were counted on a 96-well plate scintillation counter for 60 sec/well. The data were analyzed using a sigmoidal dose response curve-fitting program ((Prism, GraphPad, Inc, San Diego, Calif.; equation: one-site competition).
FIG. 7 depicts the results of a competition experiment using HEK-TREx-TAUT1 cells. ^3H-taurine was used as the substrate and unlabeled taurine was used as the competitor. The competition experiment was performed as described in Example 7. Non-specific uptake was determined by measuring the uptake into cells not induced to express the transporter (“no tet”). […] In control cells, uptake of labeled taurine remained at background levels and was largely unaffected by an excess of unlabeled taurine.
These four compounds, IAA, R,S-Baclofen, GPA, and GABA, were tested in both competition and direct uptake assays. One notable difference in the competition assay format compared to the literature is that ^3H-GABA was used, rather than ^3H-taurine, as the radiolabel. […] Therefore, to develop a competition assay that is as sensitive as possible, ^3H-GABA, a substrate with a much […] affinity, was used.

TAUT1 [2] = biological target: T1, TAUT1; test: ^3H-taurine uptake by Xenopus oocytes injected with TAUT1 cRNA; assay type: cell-based; design: expressed in transfected cells; host or cells: Xenopus oocytes injected with TAUT1 cRNA; conditions: oocytes expressing TAUT1 vs noninjected controls (FIG. 2)
TAUT1 [3] = biological target: T1, TAUT1; conditions: reported value, source not given; cited from earlier work
PgP = PgP (Homo sapiens, UniProt P08183); test: Cellular transwell monolayer efflux assay, MDCK cells with TREx-PgP
Method: A third type of efflux transporter assay is the cellular transwell monolayer efflux assay. In this assay, cells expressing efflux transporters, such as MDCK cells containing the TREx-PgP expression vector (Invitrogen Inc., Carlsbad, Calif.), are seeded and grown in transwell dishes on filter membranes made of substances such as polycarbonate. The cells form a polarized monolayer. The transwell dishes have apical and basolateral chambers that are separated by the filter membrane on which the polarized monolayer is situated. Assays are performed by placing a test compound in either the apical or basolateral chamber, followed by sampling the opposite chamber after a predetermined period of time such as 60-120 minutes and measuring the amount of the test compound. The test compound can be measured by methods such as radiolabel detection or LC-MS-MS analysis. Assays are performed in the presence and absence of an efflux transporter inhibitor or competitor. Efflux transporter inhibitors or competitors increase apical to basolateral transport and decrease basolateral to apical transport of compounds that are efflux transporter substrates. Apparent permeability (Papp) of test compounds is measured. […] Test compounds that generate ratios between 1.5 and 2.0 require additional testing to determine if they are efflux transporter substrates. An agent, conjugate, or conjugate moiety that is a TAUT1 substrate and also generates a ratio of greater than 2.0 can be modified.
MDCK cells transfected with the tetracycline-inducible TREx-PgP expression vector were seeded on polycarbonate filter membranes in transwell dishes and grown for 3-5 days, yielding a polarized monolayer with tight junctions between cells. […] The left set of bars depicts apical to basolateral transport, while the right set of bars depicts basolateral to apical transport.

[4] = substrate: NCCCC(=O)O; test: cells, lysate or membranes; conditions: other: direct uptake into HEK-TREx-TAUT1 cells, +TET minus no TET; 15 min, room temperature
[5] = 2.5 nM ^3H-vinblastine, in the presence of 250 μM verapamil vs absence (FIG. 6)

Chain of PgP (P08183 whole entry): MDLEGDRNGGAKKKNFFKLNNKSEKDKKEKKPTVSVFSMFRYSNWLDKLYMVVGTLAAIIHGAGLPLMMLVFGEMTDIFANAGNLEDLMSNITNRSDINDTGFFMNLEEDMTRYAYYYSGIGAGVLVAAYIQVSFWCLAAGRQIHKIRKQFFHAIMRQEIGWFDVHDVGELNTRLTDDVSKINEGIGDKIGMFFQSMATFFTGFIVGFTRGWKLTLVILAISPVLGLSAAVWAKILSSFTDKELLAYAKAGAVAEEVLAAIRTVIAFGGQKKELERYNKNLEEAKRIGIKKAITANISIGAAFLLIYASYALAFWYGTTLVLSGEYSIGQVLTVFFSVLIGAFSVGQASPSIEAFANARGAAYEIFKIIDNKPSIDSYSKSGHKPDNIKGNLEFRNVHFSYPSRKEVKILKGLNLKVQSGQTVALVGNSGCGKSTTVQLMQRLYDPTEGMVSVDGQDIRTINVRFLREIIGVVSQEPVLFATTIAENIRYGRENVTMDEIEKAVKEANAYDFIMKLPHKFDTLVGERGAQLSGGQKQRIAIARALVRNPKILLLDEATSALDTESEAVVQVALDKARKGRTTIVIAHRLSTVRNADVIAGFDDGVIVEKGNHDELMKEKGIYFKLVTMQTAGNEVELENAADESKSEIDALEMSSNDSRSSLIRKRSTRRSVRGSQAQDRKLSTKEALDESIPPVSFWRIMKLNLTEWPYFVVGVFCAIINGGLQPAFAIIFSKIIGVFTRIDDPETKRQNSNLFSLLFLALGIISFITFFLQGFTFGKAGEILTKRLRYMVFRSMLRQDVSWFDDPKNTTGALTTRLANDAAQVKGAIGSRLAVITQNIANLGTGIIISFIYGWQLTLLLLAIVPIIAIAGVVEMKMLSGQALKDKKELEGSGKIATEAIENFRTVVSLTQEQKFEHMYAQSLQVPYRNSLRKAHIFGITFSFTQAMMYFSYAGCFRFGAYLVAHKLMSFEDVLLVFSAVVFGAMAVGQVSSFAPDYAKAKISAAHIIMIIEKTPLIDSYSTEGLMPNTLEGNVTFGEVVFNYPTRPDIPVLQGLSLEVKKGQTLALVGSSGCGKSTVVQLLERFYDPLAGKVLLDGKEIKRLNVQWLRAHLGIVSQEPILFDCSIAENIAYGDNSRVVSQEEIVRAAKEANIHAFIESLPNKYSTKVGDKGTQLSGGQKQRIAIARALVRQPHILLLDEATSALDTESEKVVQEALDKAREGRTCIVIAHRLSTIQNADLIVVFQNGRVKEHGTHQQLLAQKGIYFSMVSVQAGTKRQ

NCCS(=O)(=O)O [Taurine]
IC50 (TAUT1 [1]; HEK-TREx-TAUT1 cells induced with tetracycline, ^3H-GABA radiolabel (taurine: ^3H-taurine per Example 9), 15 min, room temperature): 10 µM | radiolabel uptake (TAUT1 [1]; ^3H-taurine as radiolabel in HEK-TREx-TAUT1 cells, in a very short time): > 25 % of the input cpm | uptake of labeled taurine with increasing unlabeled taurine (TAUT1 [1]; ^3H-taurine substrate, unlabeled taurine competitor, cells induced to express TAUT1 (FIG. 7)): the uptake of labeled taurine decreased as the concentration of unlabeled taurine increased | ^3H-taurine uptake (TAUT1 [2]): higher levels of ^3H-taurine uptake than noninjected controls | Reported Affinity for TAUT1 (TAUT1 [3]): 0.1 mM

CC[C@]1(O)C[C@@H]2CN(CCc3c([nH]c4ccccc34)[C@@](C(=O)OC)(c3cc4c(cc3OC)N(C)[C@H]3[C@@](O)(C(=O)OC)[C@H](OC(C)=O)[C@]5(CC)C=CCN6CC[C@]43[C@@H]65)C2)C1 [^3H-vinblastine]
Apical to basolateral transport (PgP; [5]): strongly increased | basolateral to apical transport (PgP; [5]): strongly decreased | PgP substrate status (PgP; conclusion from transwell transport with and without verapamil): substrate of PgP

B1: hTAUT1 (Homo sapiens) (protein)
chain: T1 sequence (P31641 1-620)
Km [4]: 270 µM and 200 µM
